What follows are compounds tested on U-937 cells (assay: High-throughput cell death assay on library members (MTS/PMS)). Conditions: library members at 100 μM, 24 hours.
Type: cell-based, human
Experimental: A three-tiered system was devised to identify compounds that selectively induce apoptosis in cancer cells. First, all compounds were screened at 100 μM in a high-throughput manner for their ability to induce death in two cancer cell lines, HL-60 (leukemia) and U-937 (lymphoma).
Test compounds were transferred into the wells using a 96-pin transfer apparatus (V & P Scientific, San Diego Calif.) that transfers 0.2 μL of compound. The compounds were made up as 50 mM stock solutions in 100% EtOH, so one transfer gave a final concentration of 100 μM. Controls were performed in which only EtOH (containing no compound) was pin-transferred into wells containing cells. The cells were incubated with the compounds for 24 hours, and then cell death was quantitated.
For O=C(/C=C/c1ccc(O)c(O)c1)NCCc1ccc(O)cc1 [Compound 17-C], the “Induction of death in U-937 cells (percentages of cell death)” value (“Induction … (percentages of cell death)” for short) was 15%.
With COc1cccc(/C=C/C(=O)NC[C@@H](OC)c2ccc(O)cc2)c1 [Compound 9-H] the “Induction … (percentages of cell death)” value was 38%.
In the case of COc1ccc(CCNC(=O)/C=C/c2ccc(O)cc2)cc1 [Compound 18-B], the “Induction … (percentages of cell death)” value is reported as 17%.
For CO[C@H](CNC(=O)/C=C/c1ccc(O)cc1)c1ccc(O)cc1 [Compound 9-B], the “Induction … (percentages of cell death)” value was 20%.
In the case of COc1cccc(/C=C/C(=O)NC[C@H](O)c2ccc(O)cc2)c1 [Compound 15-H], the “Induction … (percentages of cell death)” value is reported as 24%.
For COc1cc(/C=C/C(=O)NC[C@@H](O)c2ccc(O)cc2)cc(OC)c1O [Compound 13-G], the “Induction … (percentages of cell death)” value was 16%.
COc1cc(/C=C/C(=O)NCCc2ccccc2)cc(OC)c1OC [Compound 16-F] was tested, and the “Induction … (percentages of cell death)” value was 30%.
O=C(/C=C/c1ccc(O)cc1)NC[C@@H](O)c1ccc(O)cc1 [Compound 13-B] was tested, and the “Induction … (percentages of cell death)” value was 49%.
COc1ccc(/C=C/C(=O)NC[C@@H](O)c2ccc(O)cc2)cc1O [Compound 13-E] was tested, and the “Induction … (percentages of cell death)” value was 43%.
In the case of COc1cc(/C=C/C(=O)NCCc2ccccc2)ccc1O [Compound 16-D], the “Induction … (percentages of cell death)” value is reported as 39%.
In the case of O=C(/C=C/c1ccc(O)cc1)NC[C@H](O)c1ccc(O)cc1 [Compound 15-B], the “Induction … (percentages of cell death)” value is reported as 39%.
For COc1ccc(CCNC(=O)/C=C/c2ccc(O)c(OC)c2)cc1 [Compound 18-D], the “Induction … (percentages of cell death)” value was 66%.
COc1ccc(CCNC(=O)/C=C/c2ccc(OC)c(O)c2)cc1 [Compound 18-E] was tested, and the “Induction … (percentages of cell death)” value was 73%.
In the case of COc1cc(/C=C/C(=O)NC[C@H](O)c2ccc(O)cc2)cc(OC)c1OC [Compound 15-F], the “Induction … (percentages of cell death)” value is reported as 12%.
In the case of COc1ccc([C@@H](CNC(=O)/C=C/c2ccccc2)OC)cc1 [Compound 10-A], the “Induction … (percentages of cell death)” value is reported as 51%.
In the case of COc1cc(/C=C/C(=O)NC[C@H](OC)c2ccc(O)cc2)cc(OC)c1O [Compound 11-G], the “Induction … (percentages of cell death)” value is reported as −11%.
In the case of COc1ccc(CCNC(=O)/C=C/c2cc(OC)c(OC)c(OC)c2)cc1 [Compound 18-F], the “Induction … (percentages of cell death)” value is reported as 40%.
For COc1ccc(CCNC(=O)/C=C/c2ccccc2)cc1 [Compound 18-A], the “Induction … (percentages of cell death)” value was 56%.
In the case of COc1ccc(/C=C/C(=O)NC[C@@H](O)c2ccccc2)cc1O [Compound 12-E], the “Induction … (percentages of cell death)” value is reported as 28%.
With CO[C@H](CNC(=O)/C=C/c1ccc(O)c(O)c1)c1ccc(O)cc1 [Compound 9-C] the “Induction … (percentages of cell death)” value was −12%.
In the case of COc1cc(/C=C/C(=O)NCCc2ccccc2)cc(OC)c1O [Compound 16-G], the “Induction … (percentages of cell death)” value is reported as 20%.
COc1cccc(/C=C/C(=O)NC[C@@H](OC)c2ccccc2)c1 [Compound 8-H] was tested, and the “Induction … (percentages of cell death)” value was 60%.
COc1ccc(/C=C/C(=O)NCCc2ccc(O)cc2)cc1O [Compound 17-E] was tested, and the “Induction … (percentages of cell death)” value was 18%.
In the case of COc1ccc(/C=C/C(=O)NCCc2ccccc2)cc1O [Compound 16-E], the “Induction … (percentages of cell death)” value is reported as 60%.
With O=C(/C=C/c1ccccc1)NCCc1ccccc1 [Compound 16-A] the “Induction … (percentages of cell death)” value was 58%.
In the case of O=C(/C=C/c1ccc(O)c(O)c1)NC[C@@H](O)c1ccc(O)cc1 [Compound 13-C], the “Induction … (percentages of cell death)” value is reported as −36%.
For COc1ccc(/C=C/C(=O)NC[C@@H](OC)c2ccc(O)cc2)cc1O [Compound 9-E], the “Induction … (percentages of cell death)” value was 41%.
For COc1cc(/C=C/C(=O)NC[C@@H](OC)c2ccccc2)ccc1O [Compound 8-D], the “Induction … (percentages of cell death)” value was 20%.
For COc1ccc(/C=C/C(=O)NC[C@@H](OC)c2ccccc2)cc1O [Compound 8-E], the “Induction … (percentages of cell death)” value was 56%.
For COc1cc(/C=C/C(=O)NC[C@@H](OC)c2ccc(O)cc2)cc(OC)c1O [Compound 9-G], the “Induction … (percentages of cell death)” value was −7%.
In the case of O=C(/C=C/c1ccc(O)cc1)NCCc1ccccc1 [Compound 16-B], the “Induction … (percentages of cell death)” value is reported as 66%.
COc1cc(/C=C/C(=O)NCCc2ccc(O)cc2)ccc1O [Compound 17-D] was tested, and the “Induction … (percentages of cell death)” value was 58%.
For CO[C@H](CNC(=O)/C=C/c1ccc(O)c(O)c1)c1ccccc1 [Compound 8-C], the “Induction … (percentages of cell death)” value was −5%.
COc1ccc([C@H](O)CNC(=O)/C=C/c2cccc(OC)c2)cc1 [Compound 14-H] was tested, and the “Induction … (percentages of cell death)” value was 38%.
For O=C(/C=C/c1ccc(O)c(O)c1)NC[C@H](O)c1ccc(O)cc1 [Compound 15-C], the “Induction … (percentages of cell death)” value was −29%.
In the case of CO[C@H](CNC(=O)/C=C/c1ccccc1)c1ccc(O)cc1 [Compound 9-A], the “Induction … (percentages of cell death)” value is reported as 24%.
In the case of COc1cc(/C=C/C(=O)NCCc2ccc(O)cc2)cc(OC)c1OC [Compound 17-F], the “Induction … (percentages of cell death)” value is reported as 9%.
In the case of COc1ccc(CCNC(=O)/C=C/c2cccc(OC)c2)cc1 [Compound 18-H], the “Induction … (percentages of cell death)” value is reported as 56%.
O=C(/C=C/c1ccccc1)NC[C@H](O)c1ccc(O)cc1 [Compound 15-A] was tested, and the “Induction … (percentages of cell death)” value was 27%.
In the case of CO[C@@H](CNC(=O)/C=C/c1ccc(O)c(O)c1)c1ccc(O)cc1 [Compound 11-C], the “Induction … (percentages of cell death)” value is reported as −9%.
In the case of COc1ccc([C@@H](CNC(=O)/C=C/c2ccc(O)c(O)c2)OC)cc1 [Compound 10-C], the “Induction … (percentages of cell death)” value is reported as −8%.
For COc1ccc(CCNC(=O)/C=C/c2ccc(O)c(O)c2)cc1 [Compound 18-C], the “Induction … (percentages of cell death)” value was 26%.
With COc1cc(/C=C/C(=O)NC[C@@H](OC)c2ccccc2)cc(OC)c1OC [Compound 8-F] the “Induction … (percentages of cell death)” value was 31%.
In the case of COc1ccc([C@H](O)CNC(=O)/C=C/c2cc(OC)c(O)c(OC)c2)cc1 [Compound 14-G], the “Induction … (percentages of cell death)” value is reported as 48%.
For COc1ccc([C@@H](CNC(=O)/C=C/c2cc(OC)c(OC)c(OC)c2)OC)cc1 [Compound 10-F], the “Induction … (percentages of cell death)” value was 45%.
With COc1cc(/C=C/C(=O)NC[C@@H](O)c2ccccc2)cc(OC)c1OC [Compound 12-F] the “Induction … (percentages of cell death)” value was 33%.
In the case of O=C(/C=C/c1ccc(O)c(O)c1)NCCc1ccccc1 [Compound 16-C], the “Induction … (percentages of cell death)” value is reported as 24%.
In the case of COc1ccc(/C=C/C(=O)NC[C@H](O)c2ccc(O)cc2)cc1O [Compound 15-E], the “Induction … (percentages of cell death)” value is reported as 22%.
COc1ccc(CCNC(=O)/C=C/c2cc(OC)c(O)c(OC)c2)cc1 [Compound 18-G] was tested, and the “Induction … (percentages of cell death)” value was 35%.
With COc1cc(/C=C/C(=O)NC[C@@H](OC)c2ccccc2)cc(OC)c1O [Compound 8-G] the “Induction … (percentages of cell death)” value was −3%.
For COc1ccc([C@@H](CNC(=O)/C=C/c2cccc(OC)c2)OC)cc1 [Compound 10-H], the “Induction … (percentages of cell death)” value was 72%.
With COc1cc(/C=C/C(=O)NC[C@H](O)c2ccc(O)cc2)cc(OC)c1O [Compound 15-G] the “Induction … (percentages of cell death)” value was 47%.
In the case of COc1ccc([C@H](O)CNC(=O)/C=C/c2ccc(O)cc2)cc1 [Compound 14-B], the “Induction … (percentages of cell death)” value is reported as 27%.
O=C(/C=C/c1ccc(O)c(O)c1)NC[C@@H](O)c1ccccc1 [Compound 12-C] was tested, and the “Induction … (percentages of cell death)” value was 27%.
For COc1ccc([C@H](O)CNC(=O)/C=C/c2ccc(O)c(O)c2)cc1 [Compound 14-C], the “Induction … (percentages of cell death)” value was −15%.
In the case of COc1ccc([C@@H](CNC(=O)/C=C/c2ccc(O)cc2)OC)cc1 [Compound 10-B], the “Induction … (percentages of cell death)” value is reported as 60%.
In the case of CO[C@@H](CNC(=O)/C=C/c1ccccc1)c1ccc(O)cc1 [Compound 11-A], the “Induction … (percentages of cell death)” value is reported as 26%.
COc1ccc([C@@H](CNC(=O)/C=C/c2ccc(O)c(OC)c2)OC)cc1 [Compound 10-D] was tested, and the “Induction … (percentages of cell death)” value was 31%.
With COc1cc(/C=C/C(=O)NC[C@@H](OC)c2ccc(O)cc2)cc(OC)c1OC [Compound 9-F] the “Induction … (percentages of cell death)” value was 13%.
COc1cccc(/C=C/C(=O)NC[C@@H](O)c2ccc(O)cc2)c1 [Compound 13-H] was tested, and the “Induction … (percentages of cell death)” value was 43%.
For COc1cc(/C=C/C(=O)NC[C@@H](O)c2ccc(O)cc2)cc(OC)c1OC [Compound 13-F], the “Induction … (percentages of cell death)” value was 22%.
In the case of O=C(/C=C/c1ccccc1)NC[C@@H](O)c1ccc(O)cc1 [Compound 13-A], the “Induction … (percentages of cell death)” value is reported as 43%.
In the case of CO[C@@H](CNC(=O)/C=C/c1ccc(O)cc1)c1ccc(O)cc1 [Compound 11-B], the “Induction … (percentages of cell death)” value is reported as 60%.
With CO[C@H](CNC(=O)/C=C/c1ccccc1)c1ccccc1 [Compound 8-A] the “Induction … (percentages of cell death)” value was 70%.
For O=C(/C=C/c1ccccc1)NC[C@@H](O)c1ccccc1 [Compound 12-A], the “Induction … (percentages of cell death)” value was 26%.
In the case of COc1ccc([C@H](O)CNC(=O)/C=C/c2ccc(O)c(OC)c2)cc1 [Compound 14-D], the “Induction … (percentages of cell death)” value is reported as 59%.
With COc1ccc([C@H](O)CNC(=O)/C=C/c2ccc(OC)c(O)c2)cc1 [Compound 14-E] the “Induction … (percentages of cell death)” value was 35%.
With COc1cc(/C=C/C(=O)NC[C@H](OC)c2ccc(O)cc2)ccc1O [Compound 11-D] the “Induction … (percentages of cell death)” value was 34%.
For COc1ccc([C@H](O)CNC(=O)/C=C/c2cc(OC)c(OC)c(OC)c2)cc1 [Compound 14-F], the “Induction … (percentages of cell death)” value was 26%.
With O=C(/C=C/c1ccc(O)cc1)NCCc1ccc(O)cc1 [Compound 17-B] the “Induction … (percentages of cell death)” value was 32%.
